Laboratory results: article PMC9415947 (Pharmaceuticals, 2022)

What was measured:
Assay type in all cases: biochemical
PI3Kδ = molecular target: T1, PI3Kδ (Homo sapiens, UniProt O00329); experiment: In vitro PI3K inhibition assay (ADP-Glo kinase assay), PI3Kδ; conditions: mean of two independent experiments
T1 construct: purchased Merck Millipore
Experimental: (§1) All compounds were tested in a biochemical assay that measured the inhibition of phosphatidylinositol […] production by PI3K isoforms using the ADP-Glo kinase assay (Promega). In addition, the effects of synthesized compounds on B cell proliferation were measured.
(§2) The potency and selectivity of compounds were assessed by measuring the ability of PI3K kinases to convert ATP to ADP during an enzymatic reaction in the presence of decreasing doses of tested compounds. The experiments were carried out using the ADP-Glo kinase assay kit (Promega), according to the manufacturer’s protocol. PI3Kα, PI3Kβ, PI3Kδ, and PI3Kγ have been purchased from Merck Millipore and phosphoinositol-4,5-bisphosphate (PIP2) lipid vesicles with phosphoserine from ThermoFisher Scientific were used as a substrate in the enzymatic reaction.
(§3) After the reaction, the ADP-Glo reagent and the kinase detection reagent were added sequentially with 40 min of incubation (25 °C, 600 rpm) after adding each reagent. Finally, the luminescence intensity was measured and the IC50 was calculated using GraphPad Prism 7 software. The presented results are the mean value of IC50 from at least two independent experiments.

PI3Kα = molecular target: T2, PI3Kα (Homo sapiens, UniProt P42336); experiment: In vitro PI3K inhibition assay (ADP-Glo kinase assay), PI3Kα; conditions: for Fold Selectivity α/δ: ratio IC50 PI3Kα / IC50 PI3Kδ
T2 construct: purchased Merck Millipore (methods text)
T2 sequence (P42336 whole entry): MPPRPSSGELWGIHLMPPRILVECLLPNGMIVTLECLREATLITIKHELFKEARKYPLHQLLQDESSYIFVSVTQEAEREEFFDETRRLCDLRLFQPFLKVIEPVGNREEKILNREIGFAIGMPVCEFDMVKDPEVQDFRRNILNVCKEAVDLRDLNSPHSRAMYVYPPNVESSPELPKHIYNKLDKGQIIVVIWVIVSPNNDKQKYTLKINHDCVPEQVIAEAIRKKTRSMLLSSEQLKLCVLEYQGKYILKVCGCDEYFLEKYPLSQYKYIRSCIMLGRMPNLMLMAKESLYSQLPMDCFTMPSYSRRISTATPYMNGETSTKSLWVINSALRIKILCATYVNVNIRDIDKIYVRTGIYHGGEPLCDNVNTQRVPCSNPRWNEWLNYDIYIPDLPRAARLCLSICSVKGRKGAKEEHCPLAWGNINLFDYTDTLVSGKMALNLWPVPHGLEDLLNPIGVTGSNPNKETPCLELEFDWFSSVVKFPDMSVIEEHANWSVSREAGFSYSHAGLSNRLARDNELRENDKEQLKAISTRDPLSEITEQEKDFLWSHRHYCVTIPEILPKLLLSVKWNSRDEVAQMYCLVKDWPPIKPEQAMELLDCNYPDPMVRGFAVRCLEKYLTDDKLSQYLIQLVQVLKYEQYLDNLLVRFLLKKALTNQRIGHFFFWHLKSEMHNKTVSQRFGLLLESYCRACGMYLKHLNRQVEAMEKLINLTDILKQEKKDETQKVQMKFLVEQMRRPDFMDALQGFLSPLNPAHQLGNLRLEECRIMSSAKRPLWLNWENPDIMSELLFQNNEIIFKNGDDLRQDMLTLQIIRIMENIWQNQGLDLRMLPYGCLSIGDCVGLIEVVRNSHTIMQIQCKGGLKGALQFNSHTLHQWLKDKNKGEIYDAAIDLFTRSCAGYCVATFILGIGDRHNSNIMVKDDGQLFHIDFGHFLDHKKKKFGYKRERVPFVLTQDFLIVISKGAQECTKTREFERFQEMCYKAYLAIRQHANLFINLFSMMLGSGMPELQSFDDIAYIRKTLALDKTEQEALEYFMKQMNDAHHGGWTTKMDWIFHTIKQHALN
T2 sequence (P27986 whole entry partner): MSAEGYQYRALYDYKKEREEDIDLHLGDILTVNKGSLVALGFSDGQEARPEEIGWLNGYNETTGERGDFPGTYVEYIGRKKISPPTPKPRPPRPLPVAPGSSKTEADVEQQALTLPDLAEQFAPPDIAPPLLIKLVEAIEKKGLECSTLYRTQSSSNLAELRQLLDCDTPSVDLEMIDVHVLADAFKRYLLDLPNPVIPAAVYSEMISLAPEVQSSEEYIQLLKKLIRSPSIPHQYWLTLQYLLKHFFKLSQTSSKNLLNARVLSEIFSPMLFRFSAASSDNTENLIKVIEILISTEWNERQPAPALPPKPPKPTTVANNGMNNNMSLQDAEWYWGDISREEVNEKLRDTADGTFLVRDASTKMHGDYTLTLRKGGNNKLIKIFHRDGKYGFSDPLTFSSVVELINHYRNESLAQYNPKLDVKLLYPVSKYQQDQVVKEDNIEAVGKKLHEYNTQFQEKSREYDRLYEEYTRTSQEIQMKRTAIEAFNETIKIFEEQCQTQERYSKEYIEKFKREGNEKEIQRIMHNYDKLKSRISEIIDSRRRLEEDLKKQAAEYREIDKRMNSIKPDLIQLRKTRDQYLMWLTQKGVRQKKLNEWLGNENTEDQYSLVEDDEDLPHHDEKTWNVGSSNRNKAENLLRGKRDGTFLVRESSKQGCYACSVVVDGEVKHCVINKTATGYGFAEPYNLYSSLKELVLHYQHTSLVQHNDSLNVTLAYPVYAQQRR
Experimental: as §1, §2, §3

PI3Kβ = molecular target: T3, PI3Kβ (Homo sapiens, UniProt P42338); experiment: In vitro PI3K inhibition assay (ADP-Glo kinase assay), PI3Kβ; conditions: for IC50: mean of two independent experiments; for Fold Selectivity β/δ: ratio IC50 PI3Kβ / IC50 PI3Kδ
T3 construct: purchased Merck Millipore
T3 sequence (P42338 whole entry, looked up): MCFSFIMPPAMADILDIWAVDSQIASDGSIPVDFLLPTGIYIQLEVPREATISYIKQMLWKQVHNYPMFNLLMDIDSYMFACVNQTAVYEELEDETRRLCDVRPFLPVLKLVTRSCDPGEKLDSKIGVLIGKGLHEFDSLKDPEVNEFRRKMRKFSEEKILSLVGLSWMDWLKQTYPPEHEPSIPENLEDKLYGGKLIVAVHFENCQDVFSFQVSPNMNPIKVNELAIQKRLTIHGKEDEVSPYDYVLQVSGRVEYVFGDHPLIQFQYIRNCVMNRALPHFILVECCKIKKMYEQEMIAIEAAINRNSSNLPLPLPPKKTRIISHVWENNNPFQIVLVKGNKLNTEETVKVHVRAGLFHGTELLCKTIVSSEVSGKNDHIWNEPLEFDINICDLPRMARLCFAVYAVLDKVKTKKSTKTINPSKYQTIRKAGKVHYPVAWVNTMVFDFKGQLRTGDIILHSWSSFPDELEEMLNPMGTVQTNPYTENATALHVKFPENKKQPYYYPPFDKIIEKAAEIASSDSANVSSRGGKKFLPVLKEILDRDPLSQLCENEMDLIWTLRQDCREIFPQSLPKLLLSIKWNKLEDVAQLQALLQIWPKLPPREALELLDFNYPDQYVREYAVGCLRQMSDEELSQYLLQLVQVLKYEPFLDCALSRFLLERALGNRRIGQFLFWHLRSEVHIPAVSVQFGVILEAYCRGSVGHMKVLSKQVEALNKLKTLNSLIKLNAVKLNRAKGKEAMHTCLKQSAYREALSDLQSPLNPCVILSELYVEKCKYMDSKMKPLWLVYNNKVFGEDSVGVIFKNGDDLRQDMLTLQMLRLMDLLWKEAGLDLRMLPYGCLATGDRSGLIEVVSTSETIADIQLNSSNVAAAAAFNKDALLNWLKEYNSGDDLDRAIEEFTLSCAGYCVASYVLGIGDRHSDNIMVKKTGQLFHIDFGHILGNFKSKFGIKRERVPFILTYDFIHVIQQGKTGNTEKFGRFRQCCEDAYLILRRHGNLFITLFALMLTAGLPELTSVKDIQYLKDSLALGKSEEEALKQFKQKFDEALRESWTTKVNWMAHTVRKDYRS
Experimental: as §1, §2, §3

PI3Kγ = molecular target: T4, PI3Kγ (Homo sapiens, UniProt P48736); experiment: In vitro PI3K inhibition assay (ADP-Glo kinase assay), PI3Kγ; conditions: for IC50: mean of two independent experiments; for Fold Selectivity γ/δ: ratio IC50 PI3Kγ / IC50 PI3Kδ
T4 construct: purchased Merck Millipore
T4 sequence (P48736 whole entry): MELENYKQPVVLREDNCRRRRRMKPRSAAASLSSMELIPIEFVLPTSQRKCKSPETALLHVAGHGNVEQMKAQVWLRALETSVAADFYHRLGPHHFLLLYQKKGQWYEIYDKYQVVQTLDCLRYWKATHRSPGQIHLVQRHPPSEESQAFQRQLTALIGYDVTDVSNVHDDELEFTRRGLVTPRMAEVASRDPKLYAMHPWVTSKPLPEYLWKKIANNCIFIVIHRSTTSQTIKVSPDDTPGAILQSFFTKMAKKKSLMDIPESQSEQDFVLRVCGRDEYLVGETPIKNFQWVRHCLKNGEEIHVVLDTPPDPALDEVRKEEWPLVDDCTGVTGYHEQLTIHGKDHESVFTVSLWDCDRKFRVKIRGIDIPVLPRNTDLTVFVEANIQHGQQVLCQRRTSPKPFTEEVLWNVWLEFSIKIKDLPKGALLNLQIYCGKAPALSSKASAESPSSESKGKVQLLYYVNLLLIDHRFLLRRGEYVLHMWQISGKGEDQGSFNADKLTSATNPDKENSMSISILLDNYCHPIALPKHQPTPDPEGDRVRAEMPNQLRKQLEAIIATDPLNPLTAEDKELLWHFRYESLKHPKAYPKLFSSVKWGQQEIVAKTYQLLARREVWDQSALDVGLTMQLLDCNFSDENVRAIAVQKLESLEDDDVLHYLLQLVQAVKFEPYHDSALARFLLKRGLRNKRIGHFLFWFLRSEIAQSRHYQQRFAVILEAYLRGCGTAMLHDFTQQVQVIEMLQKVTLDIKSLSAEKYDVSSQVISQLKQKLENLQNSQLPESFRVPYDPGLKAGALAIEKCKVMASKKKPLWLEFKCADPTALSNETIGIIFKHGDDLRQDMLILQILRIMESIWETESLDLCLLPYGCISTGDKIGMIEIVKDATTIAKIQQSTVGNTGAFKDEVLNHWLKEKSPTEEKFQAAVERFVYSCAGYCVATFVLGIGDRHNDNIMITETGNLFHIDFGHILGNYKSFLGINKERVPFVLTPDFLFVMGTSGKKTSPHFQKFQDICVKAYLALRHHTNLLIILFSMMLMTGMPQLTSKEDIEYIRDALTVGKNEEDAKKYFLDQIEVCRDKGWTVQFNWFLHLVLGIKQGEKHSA
Experimental: as §1, §2, §3

T1 sequence (O00329 whole entry, looked up): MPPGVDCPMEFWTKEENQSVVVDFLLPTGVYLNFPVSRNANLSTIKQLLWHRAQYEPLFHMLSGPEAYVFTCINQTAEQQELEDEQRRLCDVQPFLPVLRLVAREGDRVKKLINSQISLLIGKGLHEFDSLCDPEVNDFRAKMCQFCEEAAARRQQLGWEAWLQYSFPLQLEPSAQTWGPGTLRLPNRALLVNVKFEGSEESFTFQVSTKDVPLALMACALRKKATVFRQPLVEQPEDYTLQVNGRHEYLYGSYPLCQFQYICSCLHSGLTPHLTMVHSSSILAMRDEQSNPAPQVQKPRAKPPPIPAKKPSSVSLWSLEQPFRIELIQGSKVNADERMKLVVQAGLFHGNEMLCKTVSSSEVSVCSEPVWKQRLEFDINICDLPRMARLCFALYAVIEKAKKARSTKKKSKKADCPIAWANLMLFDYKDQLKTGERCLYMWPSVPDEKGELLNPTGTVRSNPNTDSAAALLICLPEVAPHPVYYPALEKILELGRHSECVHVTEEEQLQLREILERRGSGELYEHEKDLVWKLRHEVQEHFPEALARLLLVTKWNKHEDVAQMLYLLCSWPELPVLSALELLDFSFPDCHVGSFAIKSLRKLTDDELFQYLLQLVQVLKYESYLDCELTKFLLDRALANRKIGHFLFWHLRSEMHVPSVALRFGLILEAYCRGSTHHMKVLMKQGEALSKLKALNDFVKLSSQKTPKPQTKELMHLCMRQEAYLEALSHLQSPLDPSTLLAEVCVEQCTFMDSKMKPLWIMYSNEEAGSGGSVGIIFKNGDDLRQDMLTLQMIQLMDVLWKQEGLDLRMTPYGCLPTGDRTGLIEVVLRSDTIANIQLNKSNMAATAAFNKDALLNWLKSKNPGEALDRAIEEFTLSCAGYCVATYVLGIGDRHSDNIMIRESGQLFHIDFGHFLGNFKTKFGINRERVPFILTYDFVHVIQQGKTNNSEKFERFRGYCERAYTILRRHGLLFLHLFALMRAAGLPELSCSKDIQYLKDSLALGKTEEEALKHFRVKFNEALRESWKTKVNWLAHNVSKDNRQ

Row | IC50 (PI3Kα) [nM] | Fold Selectivity α/δ (PI3Kα) | IC50 (PI3Kβ) [nM] | Fold Selectivity β/δ (PI3Kβ) | Structure (SMILES) | IC50 (PI3Kδ) [nM] | IC50 (PI3Kγ) [nM] | Fold Selectivity γ/δ (PI3Kγ)
1 | 82500 | 77 | 259000 | 242 | CC(C)(C)N1CCN(Cc2cc3nc(-n4c(C5CC5)nc5ccccc54)cc(N4CCOCC4)n3n2)CC1 [Compound 8, 1-{2-[(4-tert-butylpiperazin-1-yl)methyl]-7-(morpholin-4-yl)pyrazolo[1,5-a]pyrimidin-5-yl}-2-cyclopropyl-1H-benzimidazole] | 1070 | 271000 | 253
2 | 1730 | 33 | – | – | CC(C)(O)C1CCN(Cc2cc3nc(-n4c(C(F)F)nc5ccccc54)cc(N4CCOCC4)n3n2)CC1 [Compound 11, 2-[1-({5-[2-(difluoromethyl)-1H-benzimidazol-1-yl]-7-(morpholin-4-yl)pyrazolo[1,5-a]pyrimidin-2-yl}methyl)piperidin-4-yl]propan-2-ol] | 52 | 6350 | 122
3 | 30500 | 35 | 195000 | 222 | Cc1nc2ccccc2n1-c1cc(N2CCOCC2)n2nc(CN3CCC(C(C)(C)O)CC3)cc2n1 [Compound 12, 2-(1-{[5-(2-methyl-1H-1,3-benzimidazol-1-yl)-7-(morpholin-4-yl)pyrazolo[1,5-a]pyrimidin-2-yl]methyl}piperidin-4-yl)propan-2-ol] | 878 | 119000 | 136
4 | – | – | – | – | C[C@H]1COCCN1Cc1cc2nc(-n3c(C(F)F)nc4ccccc43)cc(N3CCOCC3)n2n1 [Compound 24, 2-(difluoromethyl)-1-(2-{[(3S)-3-methylmorpholin-4-yl]methyl}-7-(morpholin-4-yl)pyrazolo[1,5-a]pyrimidin-5-yl)-1H-1,3-benzimidazole] | 254 | 588 | 2.3
5 | – | – | – | – | O[C@@H]1CCN(Cc2cc3nc(-n4c(C(F)F)nc5ccccc54)cc(N4CCOCC4)n3n2)C1 [Compound 22, (3R)-1-({5-[2-(difluoromethyl)-1H-1,3-benzimidazol-1-yl]-7-(morpholin-4-yl)pyrazolo[1,5-a]pyrimidin-2-yl}methyl)pyrrolidin-3-ol] | 979 | 8420 | 8.6
6 | – | – | – | – | O=C(c1cc2nc(-n3c(C(F)F)nc4ccccc43)cc(N3CCOCC3)n2n1)N1CCC(F)(F)CC1 [Compound 47, 2-(difluoromethyl)-1-[2-(4,4-difluoropiperidine-1-carbonyl)-7-(morpholin-4-yl)pyrazolo[1,5-a]pyrimidin-5-yl]-1H-1,3-benzimidazole] | 801 | 35800 | 45
7 | – | – | – | – | CN1CCN(Cc2cc3nc(-n4c(C(F)F)nc5ccccc54)cc(N4CCOCC4)n3n2)CC1 [Compound 37, 2-(difluoromethyl)-1-{2-[(4-methylpiperazin-1-yl)methyl]-7-(morpholin-4-yl)pyrazolo[1,5-a]pyrimidin-5-yl}-1H-1,3-benzimidazole] | 351 | 17700 | 50
8 | – | – | – | – | OCC1CCCN1Cc1cc2nc(-n3c(C(F)F)nc4ccccc43)cc(N3CCOCC3)n2n1 (stereo not drawn) [Compound 19, [1-({5-[2-(difluoromethyl)-1H-1,3-benzimidazol-1-yl]-7-(morpholin-4-yl)pyrazolo[1,5-a]pyrimidin-2-yl}methyl)pyrrolidin-2-yl]methanol] | 1070 | 4470 | 4.2
9 | – | – | – | – | FC(F)c1nc2ccccc2n1-c1cc(N2CCOCC2)n2nc(CN3CCC(N4CCOCC4)CC3)cc2n1 [Compound 33, 2-(difluoromethyl)-1-[7-(morpholin-4-yl)-2-{[4-(morpholin-4-yl)piperidin-1-yl]methyl}pyrazolo[1,5-a]pyrimidin-5-yl]-1H-1,3-benzimidazole] | 276 | 4800 | 17
10 | – | – | – | – | O=C(c1cc2nc(-n3c(C(F)F)nc4ccccc43)cc(N3CCOCC3)n2n1)N1CCC(CO)CC1 [Compound 50, (1-{5-[2-(difluoromethyl)-1H-1,3-benzimidazol-1-yl]-7-(morpholin-4-yl)pyrazolo[1,5-a]pyrimidine-2-carbonyl}piperidin-4-yl)methanol] | 90 | 1780 | 20
11 | – | – | – | – | CC(=O)NC1CCN(C(=O)c2cc3nc(-n4c(C(F)F)nc5ccccc54)cc(N4CCOCC4)n3n2)CC1 [Compound 54, N-(1-{5-[2-(difluoromethyl)-1H-1,3-benzimidazol-1-yl]-7-(morpholin-4-yl)pyrazolo[1,5-a]pyrimidine-2-carbonyl}piperidin-4-yl)acetamide] | 141 | 1690 | 12
12 | – | – | – | – | O=C(c1cc2nc(-n3c(C(F)F)nc4ccccc43)cc(N3CCOCC3)n2n1)N1CCN(C(=O)C2CC2)CC1 [Compound 43, 1-[2-(4-cyclopropanecarbonylpiperazine-1-carbonyl)-7-(morpholin-4-yl)pyrazolo[1,5-a]pyrimidin-5-yl]-2-(difluoromethyl)-1H-1,3-benzimidazole] | 63 | 3830 | 61
13 | – | – | – | – | NC1CCN(C(=O)c2cc3nc(-n4c(C(F)F)nc5ccccc54)cc(N4CCOCC4)n3n2)C1 (stereo not drawn) [Compound 45, 1-{5-[2-(difluoromethyl)-1H-1,3-benzodiazol-1-yl]-7-(morpholin-4-yl)pyrazolo[1,5-a]pyrimidine-2-carbonyl}pyrrolidin-3-amine] | 1700 | 23300 | 14
14 | – | – | – | – | NC1CCN(Cc2cc3nc(-n4c(C(F)F)nc5ccccc54)cc(N4CCOCC4)n3n2)C1 (stereo not drawn) [Compound 20, 1-({5-[2-(difluoromethyl)-1H-1,3-benzimidazol-1-yl]-7-(morpholin-4-yl)pyrazolo[1,5-a]pyrimidin-2-yl}methyl)pyrrolidin-3-amine] | 1890 | 22100 | 12
15 | – | – | – | – | CCOC(=O)C1CCCN(Cc2cc3nc(-n4c(C(F)F)nc5ccccc54)cc(N4CCOCC4)n3n2)C1 (stereo not drawn) [Compound 26, 1-({5-[2-(difluoromethyl)-1H-1,3-benzodiazol-1-yl]-7-(morpholin-4-yl)pyrazolo[1,5-a]pyrimidin-2-yl}methyl)piperidine-3-carboxylate] | 203 | 4280 | 21
16 | – | – | – | – | CC(C)(C)N1CCN(C(=O)c2cc3nc(-n4c(C(F)F)nc5ccccc54)cc(N4CCOCC4)n3n2)CC1 [Compound 40, 1-[2-(4-tert-butylpiperazine-1-carbonyl)-7-(morpholin-4-yl)pyrazolo[1,5-a]pyrimidin-5-yl]-2-(difluoromethyl)-1H-1,3-benzimidazole] | 84 | 48800 | 581
17 | – | – | – | – | OCC1CCN(Cc2cc3nc(-n4c(C(F)F)nc5ccccc54)cc(N4CCOCC4)n3n2)CC1 [Compound 31, [1-({5-[2-(difluoromethyl)-1H-1,3-benzimidazol-1-yl]-7-(morpholin-4-yl)pyrazolo[1,5-a]pyrimidin-2-yl}methyl)piperidin-4-yl]methanol] | 593 | 8320 | 14
18 | 28700 | 74 | 266000 | 690 | CCc1nc2ccccc2n1-c1cc(N2CCOCC2)n2nc(CN3CCN(C(C)(C)C)CC3)cc2n1 [Compound 7, 1-{2-[(4-tert-butylpiperazin-1-yl)methyl]-7-(morpholin-4-yl)pyrazolo[1,5-a]pyrimidin-5-yl}-2-ethyl-1H-benzimidazole] | 385 | 258000 | 671
19 | – | – | – | – | CC1(O)CCN(C(=O)c2cc3nc(-n4c(C(F)F)nc5ccccc54)cc(N4CCOCC4)n3n2)CC1 [Compound 49, 1-{5-[2-(difluoromethyl)-1H-1,3-benzimidazol-1-yl]-7-(morpholin-4-yl)pyrazolo[1,5-a]pyrimidine-2-carbonyl}-4-methylpiperidin-4-ol] | 213 | 1820 | 8.5

Row | Structure (SMILES) | IC50 (PI3Kα) [nM] | Fold Selectivity α/δ (PI3Kα) | IC50 (PI3Kβ) [nM] | Fold Selectivity β/δ (PI3Kβ) | IC50 (PI3Kδ) [nM] | IC50 (PI3Kγ) [nM] | Fold Selectivity γ/δ (PI3Kγ)
20 | Cc1nc2ccccc2n1-c1cc(N2CCOCC2)n2nc(CN3CCN(C(C)(C)C)CC3)cc2n1 [Compound 5, 1-{2-[(4-tert-butylpiperazin-1-yl)methyl]-7-(morpholin-4-yl)pyrazolo[1,5-a]pyrimidin-5-yl}-2-methyl-1H-benzimidazole] | 10600 | 45 | 298000 | 1264 | 236 | 175000 | 742
